Series [1] addresses CGRP receptor (CALCRL/RAMP1) (Homo sapiens). Nature of the series: Displacement of [125I]CGRP from CGRP receptor in human SK-N-MC cells after 2 hrs by scintillation counter. (In general: In a radioligand displacement assay an active substance lowers the binding of a labelled ligand.)
The nature of series [2]: Permeability of compound across apical to basolateral side in human Caco2 cells. To be noted: Caco-2, read-out: permeability. It is filed as ADME, cell-based. A general note: Caco-2 cells form a polarised layer with tight junctions and transporters.
The test system of series [3] is CGRP receptor (CALCRL/RAMP1) (Homo sapiens). Briefly: Antagonist activity at CGRP receptor (unknown origin).
Series [4] can be described thus: Permeability of compound by PAMPA. The format is ADME. To be noted: read-out: permeability. (PAMPA measures passive passage across an artificial lipid membrane.)

The structures appear in SMILES notation. Calls of active or inactive are those of the source. The calls are words filed in the database; no cut-off is given here.

For the molecule `Cc1cc(C[C@@H](NC(=O)N2CCC(c3ccc(Cl)cc3)CC2)C(=O)N2CCC(N3CCCCC3)CC2)cc2cn[nH]c12`, the IC50 (usually the point on the concentration scale where inhibition reaches its midpoint) in series [1] is 41 nM.
As for `Cc1cc(C[C@@H](NC(=O)N2CCN(c3ccc(Cl)cc3Cl)CC2)C(=O)N2CCC(N3CCCCC3)CC2)cc2cn[nH]c12`, the Papp A→B in series [2] is < 1.5 ×10⁻⁶ cm/s. For the same molecule, in series [1], the IC50 is 4.3 nM. The outcome in series [3] was Active. In addition, in series [4], the Papp turned out to be 17 ×10⁻⁶ cm/s.
Regarding `Cc1cc(C[C@@H](NC(=O)N2CCC(c3cc4ccccc4cc3C#N)CC2)C(=O)N2CCC(N3CCCCC3)CC2)cc2cn[nH]c12`, the IC50 in series [1] was 0.11 nM.
Same read-out and setting: next, `Cc1cc(C[C@@H](NC(=O)N2CCN(c3ccccc3)CC2)C(=O)N2CCC(N3CCCCC3)CC2)cc2cn[nH]c12`: 44 nM.
Take `Cc1ccc(C2CCN(C(=O)N[C@H](Cc3cc(C)c4[nH]ncc4c3)C(=O)N3CCC(N4CCCCC4)CC3)CC2)cc1`: the half-maximal inhibitory concentration (IC50) in series [1] is 240 nM.
In the case of `Cc1cc(C[C@@H](NC(=O)N2CCC(N3Cc4cccc(F)c4NC3=O)CC2)C(=O)N2CCC(N3CCCCC3)CC2)cc2cn[nH]c12`, the Papp A→B in series [2] was < 1.5 ×10⁻⁶ cm/s.
As for `Cc1cc(C[C@@H](NC(=O)N2CCC(c3ccccc3Cl)CC2)C(=O)N2CCC(N3CCCCC3)CC2)cc2cn[nH]c12`, in series [1], the IC50 is 9.8 nM.
`Cc1cc(C[C@@H](NC(=O)N2CCN(c3ccc(S(C)(=O)=O)cc3Cl)CC2)C(=O)N2CCC(N3CCCCC3)CC2)cc2cn[nH]c12`: the half-inhibitory concentration (IC50) in series [1] is 7 nM.
For `Cc1cc(C[C@@H](NC(=O)N2CCC(c3ccc4ccccc4c3)CC2)C(=O)N2CCC(N3CCCCC3)CC2)cc2cn[nH]c12`, in series [2], the Papp A→B is < 1.5 ×10⁻⁶ cm/s. Further, in series [4], the Papp is 6.1 ×10⁻⁶ cm/s.
For the molecule `Cc1cc(C[C@@H](NC(=O)N2CCN(c3ccccc3C#N)CC2)C(=O)N2CCC(N3CCCCC3)CC2)cc2cn[nH]c12`, the concentration for half-maximal inhibition (IC50) in series [1] is 8.9 nM.
Same read-out and setting: the same measure for `Cc1cc(C[C@@H](NC(=O)N2CCC(c3cccc4ccccc34)CC2)C(=O)N2CCC(N3CCCCC3)CC2)cc2cn[nH]c12`: 430 nM; for `Cc1cc(C[C@@H](NC(=O)N2CCC(c3cccc(Cl)c3)CC2)C(=O)N2CCC(N3CCCCC3)CC2)cc2cn[nH]c12`: 150 nM.
Turning to `Cc1cc(C[C@@H](NC(=O)N2CCN(c3ccc(C#N)cc3)CC2)C(=O)N2CCC(N3CCCCC3)CC2)cc2cn[nH]c12`, the IC50 in series [1] was 99 nM.
`Cc1cc(C[C@@H](NC(=O)N2CCC(c3cc4ccccc4cc3Cl)CC2)C(=O)N2CCC(N3CCCCC3)CC2)cc2cn[nH]c12`: the Papp A→B in series [2] was < 1.5 ×10⁻⁶ cm/s. Further, the concentration for half-maximal inhibition (IC50) in series [1] was 0.23 nM. In series [3], the outcome was Active. Moreover, the Papp in series [4] is 5.7 ×10⁻⁶ cm/s.
On the same counts, the results for `Cc1ccc(C2CCN(C(=O)N[C@H](Cc3cc(C)c4[nH]ncc4c3)C(=O)N3CCC(N4CCCCC4)CC3)CC2)c(Cl)c1` are < 1.5 ×10⁻⁶ cm/s, 16 nM, “Active” and 12 ×10⁻⁶ cm/s.
`Cc1cccc(C2CCN(C(=O)N[C@H](Cc3cc(C)c4[nH]ncc4c3)C(=O)N3CCC(N4CCCCC4)CC3)CC2)c1F`: the 50% inhibitory concentration (IC50) in series [1] is 120 nM.
Turning to `COC(=O)c1ccccc1N1CCN(C(=O)N[C@H](Cc2cc(C)c3[nH]ncc3c2)C(=O)N2CCC(N3CCCCC3)CC2)CC1`, in series [1], the IC50 was 110 nM.
`Cc1cc(C[C@@H](NC(=O)N2CCN(c3ccc(Cl)c(Cl)c3)CC2)C(=O)N2CCC(N3CCCCC3)CC2)cc2cn[nH]c12`: in series [1], the IC50 was 12 nM.
Turning to `Cc1cc(C[C@@H](NC(=O)N2CCC(c3ccc(Cl)cc3Cl)CC2)C(=O)N2CCC(N3CCCCC3)CC2)cc2cn[nH]c12`, the Papp A→B in series [2] is < 1.5 ×10⁻⁶ cm/s. Also, in series [1], the half-maximal inhibitory concentration (IC50) is 1.1 nM. Further, the result in series [3] was Active. For the same molecule, the Papp in series [4] was 2.4 ×10⁻⁶ cm/s.
Turning to `Cc1cc(C[C@@H](NC(=O)N2CCC(c3ccc(C(F)(F)F)cc3C(F)(F)F)CC2)C(=O)N2CCC(N3CCCCC3)CC2)cc2cn[nH]c12`, the Papp A→B in series [2] was < 1.5 ×10⁻⁶ cm/s. Further, the Papp in series [4] is 7.1 ×10⁻⁶ cm/s.
As to `Cc1cc(C[C@@H](NC(=O)N2CCC(c3ccccc3F)CC2)C(=O)N2CCC(N3CCCCC3)CC2)cc2cn[nH]c12`, the 50% inhibitory concentration (IC50) in series [1] was 170 nM.
Turning to `Cc1cc(C[C@@H](NC(=O)N2CCN(c3ccc(S(C)(=O)=O)cc3F)CC2)C(=O)N2CCC(N3CCCCC3)CC2)cc2cn[nH]c12`, the half-inhibitory concentration (IC50) in series [1] was 34 nM.
On the same count and under the same terms, the same measure for `Cc1cc(C[C@@H](NC(=O)N2CCC(c3ccc(F)cc3F)CC2)C(=O)N2CCC(N3CCCCC3)CC2)cc2cn[nH]c12`: 92 nM.
Consider `Cc1cc(C[C@@H](NC(=O)N2CCN(c3ccc(Br)cc3)CC2)C(=O)N2CCC(N3CCCCC3)CC2)cc2cn[nH]c12`, for which the Papp A→B in series [2] was < 1.5 ×10⁻⁶ cm/s. The concentration for half-maximal inhibition (IC50) in series [1] is 33 nM. In addition, the result in series [3] was Active. In addition, the Papp in series [4] was 5.2 ×10⁻⁶ cm/s.
Regarding `Cc1cc(C[C@@H](NC(=O)N2CCN(c3ccc(F)cc3S(C)(=O)=O)CC2)C(=O)N2CCC(N3CCCCC3)CC2)cc2cn[nH]c12`, the concentration for half-maximal inhibition (IC50) in series [1] was 2.9 nM.
As for `Cc1cc(C[C@@H](NC(=O)N2CCC(c3ccccc3)CC2)C(=O)N2CCC(N3CCCCC3)CC2)cc2cn[nH]c12`, the IC50 in series [1] was 460 nM.
The same measure, in the same setting: next, `CCOC(=O)c1ccc(N2CCN(C(=O)N[C@H](Cc3cc(C)c4[nH]ncc4c3)C(=O)N3CCC(N4CCCCC4)CC3)CC2)cc1`: 44 nM.
With `Cc1ccccc1C1CCN(C(=O)N[C@H](Cc2cc(C)c3[nH]ncc3c2)C(=O)N2CCC(N3CCCCC3)CC2)CC1`, in series [1], the IC50 is 170 nM.
As for `Cc1cc(C[C@@H](NC(=O)N2CCN(c3ccc(F)c(F)c3)CC2)C(=O)N2CCC(N3CCCCC3)CC2)cc2cn[nH]c12`, in series [1], the half-inhibitory concentration (IC50) is 97 nM.
`Cc1cc(C[C@@H](NC(=O)N2CCC(c3cccc(Br)c3)CC2)C(=O)N2CCC(N3CCCCC3)CC2)cc2cn[nH]c12`: the IC50 in series [1] is 130 nM.
With `Cc1cc(C[C@@H](NC(=O)N2CCN(c3ccc(-c4ccccc4)cc3)CC2)C(=O)N2CCC(N3CCCCC3)CC2)cc2cn[nH]c12`, the concentration for half-maximal inhibition (IC50) in series [1] is 46 nM.
Still for that read-out and setting: next, `Cc1cc(C[C@@H](NC(=O)N2CCN(c3ccccc3F)CC2)C(=O)N2CCC(N3CCCCC3)CC2)cc2cn[nH]c12`: 130 nM; `Cc1cc(C[C@@H](NC(=O)N2CCC(c3ccc(Br)cc3)CC2)C(=O)N2CCC(N3CCCCC3)CC2)cc2cn[nH]c12`: 13 nM.
On to `Cc1cc(C[C@@H](NC(=O)N2CCN(c3ccccc3Br)CC2)C(=O)N2CCC(N3CCCCC3)CC2)cc2cn[nH]c12`, for which, in series [2], the Papp A→B is 5.6 ×10⁻⁶ cm/s. The 50% inhibitory concentration (IC50) in series [1] is 12 nM. In series [3], the outcome was Active. Further, in series [4], the Papp came to 3.5 ×10⁻⁶ cm/s.
As for `Cc1cc(C[C@@H](NC(=O)N2CCN(c3ccc(Cl)cc3)CC2)C(=O)N2CCC(N3CCCCC3)CC2)cc2cn[nH]c12`, in series [1], the IC50 was 77 nM.
As for `Cc1cc(C[C@@H](NC(=O)N2CCN(c3cccc(Cl)c3)CC2)C(=O)N2CCC(N3CCCCC3)CC2)cc2cn[nH]c12`, the IC50 in series [1] was 19 nM. In series [3], the result was Active. Further, the Papp in series [4] came out at 5.2 ×10⁻⁶ cm/s.

Values taken from ChEMBL document CHEMBL3769346, “Synthesis and SAR of calcitonin gene-related peptide (CGRP) antagonists containing substituted aryl-piperazines and piperidines” (Bioorg Med Chem Lett, 2016).
